The test system of test [1] is P-P70S6K (T389). Put plainly: Cell based AlphaLISA assay, inhibition of P-P70S6K (T389) (mTORC1 substrate phosphorylation) in MDA-MB-468 cells. The settings on record: Homo sapiens, 4 h, AlphaLISA, two to four hours at 37° C., read-out: pIC50 for Inhibition of mTORC1 and mTORC2 Substrate Phosphorylation, P-P70S6K-(T389) (converted). How it is done: (§1) Cell Based AlphaLISA Assays for Determining IC50 for Inhibition of P-Akt (S473), P-4E-BP1 (T37/46), and P-P70S6K (T389) in MDA-MB-468 Cells
(§2) mTOR Kinase Cellular Assay
(§3) To measure functional activity of mTORC1 and mTORC2 in cells the phosphorylation of 4EBP1 (Thr37/46) and P70S6K (Thr389), and AKT1/2/3 (Ser473) was monitored using AlphaLisa SureFire Ultra Kits (Perkin Elmer). […] Incubations were terminated by removal of the assay buffer and addition of lysis buffer provided with the assay kit. Samples were processed according to the manufacturer's instructions. The Alpha signal from the respective phosphoproteins was measured in duplicate using a microplate reader (Envision, Perkin-Elmer or Spectramax M5, Molecular Devices). Inhibitor concentration response curves were analyzed using normalized IC50 regression curve fitting with control based normalization.
A general note: Bead proximity is the source of the signal in Alpha formats.

Test [2] has as its system P-4E-BP1 (T37/46). Nature of the test: Cell based AlphaLISA assay, inhibition of P-4E-BP1 (T37/46) (mTORC1 substrate phosphorylation) in MDA-MB-468 cells. The settings on record: Homo sapiens, MDA-MB-468, 4 h, AlphaLISA, two to four hours at 37° C., read-out: pIC50 for Inhibition of mTORC1 and mTORC2 Substrate Phosphorylation, P-4E-BP1-(T37/46) (converted). How it is done: as §1, §2, §3

In test [3] the test system is P-Akt (S473). Put plainly: Cell based AlphaLISA assay, inhibition of P-Akt (S473) (mTORC2 substrate phosphorylation) in MDA-MB-468 cells. The settings on record: Homo sapiens, MDA-MB-468, 4 h, AlphaLISA, two to four hours at 37° C., read-out: pIC50 for Inhibition of mTORC1 and mTORC2 Substrate Phosphorylation, p-AKT 1/2/3 -(S473) (converted). As for the experimental part: as §1, §2, §3

The structures appear in SMILES notation.

`COc1ccc(-c2ccc3ncc4c(c3c2)n(-c2ccc(N3CCN(C(=O)CCOCCOCCOCCOCCOCCOCCOCCOCCn5cc(CCCCO[C@@H]6CC[C@@H](C[C@@H](C)[C@@H]7CC(=O)[C@H](C)/C=C(\C)[C@@H](O)[C@@H](OC)C(=O)[C@H](C)C[C@H](C)/C=C/C=C/C=C(\C)[C@@H](OC)C[C@@H]8CC[C@@H](C)[C@@](O)(O8)C(=O)C(=O)N8CCCC[C@H]8C(=O)O7)C[C@H]6OC)nn5)CC3)c(C(F)(F)F)c2)c(=O)n4C)cn1` [Example 11]: the IC50 was less than 1 nM in test [1], less than 3.16 nM in test [2] and less than 3.16 nM in test [3].
On to `CO[C@H]1C[C@@H]2CC[C@@H](C)[C@@](O)(O2)C(=O)C(=O)N2CCCC[C@H]2C(=O)O[C@H]([C@H](C)C[C@@H]2CC[C@@H](O)[C@H](OC)C2)C[C@@H](OC)[C@H](C)/C=C(\C)[C@@H](O)[C@@H](OC)C(=NOCc2cn(CCOCCOCCOCCOCCOCCC(=O)NCCCCn3nc(-c4ccc5oc(N)nc5c4)c4c(N)ncnc43)nn2)[C@H](C)C[C@H](C)/C=C/C=C/C=C/1C` [Example 12], for which the IC50 in test [1], in test [2] and in test [3] was more than 1000 nM throughout.
Take `CO[C@H]1C[C@@H]2CC[C@@H](C)[C@@](O)(O2)C(=O)C(=O)N2CCCC[C@H]2C(=O)O[C@H]([C@H](C)C[C@@H]2CC[C@@H](O)[C@H](OC)C2)C[C@@H](OC)[C@H](C)/C=C(\C)[C@@H](O)[C@@H](OC)C(=NOCc2cn(CCOCCOCCOCCOCCOCCOCCC(=O)NCCCCn3nc(-c4ccc5oc(N)nc5c4)c4c(N)ncnc43)nn2)[C@H](C)C[C@H](C)/C=C/C=C/C=C/1C` [Example 13]: the IC50 in test [1] is 1 to 10 nM; in test [2], 3.16 to 31.6 nM; in test [3], 31.6 to 1000 nM.
`CO[C@H]1C[C@@H]2CC[C@@H](C)[C@@](O)(O2)C(=O)C(=O)N2CCCC[C@H]2C(=O)O[C@H]([C@H](C)C[C@@H]2CC[C@@H](O)[C@H](OC)C2)C[C@@H](OC)[C@H](C)/C=C(\C)[C@@H](O)[C@@H](OC)/C(=N/OCc2cn(CCOCCOCCOCCOCCOCCOCCC(=O)NCCCCn3nc(-c4ccc5oc(N)nc5c4)c4c(N)ncnc43)nn2)[C@H](C)C[C@H](C)/C=C/C=C/C=C/1C` [Example 14]: the IC50 in test [1] is 1 to 10 nM; in test [2] it was 3.16 to 31.6 nM; in test [3], 31.6 to 1000 nM.
Taken in the same sequence, the figures for `CO[C@H]1C[C@@H]2CC[C@@H](C)[C@@](O)(O2)C(=O)C(=O)N2CCCC[C@H]2C(=O)O[C@H]([C@H](C)C[C@@H]2CC[C@@H](O)[C@H](OC)C2)C[C@@H](OC)[C@H](C)/C=C(\C)[C@@H](O)[C@@H](OC)/C(=N\OCc2cn(CCOCCOCCOCCOCCOCCOCCC(=O)NCCCCn3nc(-c4ccc5oc(N)nc5c4)c4c(N)ncnc43)nn2)[C@H](C)C[C@H](C)/C=C/C=C/C=C/1C` [Example 15] were 1 to 10 nM, 3.16 to 31.6 nM and 31.6 to 1000 nM.
In the same order, the values of `CO[C@H]1C[C@@H]2CC[C@@H](C)[C@@](O)(O2)C(=O)C(=O)N2CCCC[C@H]2C(=O)O[C@H]([C@H](C)C[C@@H]2CC[C@@H](O)[C@H](OC)C2)C[C@@H](OC)[C@H](C)/C=C(\C)[C@@H](O)[C@@H](OC)C(=NOCc2cn(CCOCCOCCOCCOCCC(=O)NCCCCn3nc(-c4ccc5oc(N)nc5c4)c4c(N)ncnc43)nn2)[C@H](C)C[C@H](C)/C=C/C=C/C=C/1C` [Example 16] are more than 1000 nM, more than 1000 nM and more than 1000 nM.
On to `CO[C@H]1C[C@@H]2CC[C@@H](C)[C@@](O)(O2)C(=O)C(=O)N2CCCC[C@H]2C(=O)O[C@H]([C@H](C)C[C@@H]2CC[C@@H](O)[C@H](OC)C2)C[C@@H](OC)[C@H](C)/C=C(\C)[C@@H](O)[C@@H](OC)C(=NOCc2cn(CCOCCOCCOCCOCCOCCOCCOCCOCCC(=O)NCCCCn3nc(-c4ccc5oc(N)nc5c4)c4c(N)ncnc43)nn2)[C@H](C)C[C@H](C)/C=C/C=C/C=C/1C` [Example 17], for which the IC50 was 1 to 10 nM in test [1], 3.16 to 31.6 nM in test [2] and 31.6 to 1000 nM in test [3].
Take `CO[C@@H]1C[C@H](C[C@@H](C)[C@@H]2CC(=O)[C@H](C)/C=C(\C)[C@@H](O)[C@@H](OC)C(=O)[C@H](C)C[C@H](C)/C=C/C=C/C=C(\C)[C@@H](c3ccco3)C[C@@H]3CC[C@@H](C)[C@@](O)(O3)C(=O)C(=O)N3CCCC[C@H]3C(=O)O2)CC[C@H]1OCCCCc1cn(CCOCCOCCOCCOCCOCCOCCOCCOCCC(=O)NCCCCn2nc(-c3ccc4oc(N)nc4c3)c3c(N)ncnc32)nn1` [Example 18]: the IC50 in test [1] is less than 1 nM; in test [2] it was less than 3.16 nM; in test [3] it was less than 3.16 nM.
Consider `CO[C@H]1C[C@@H]2CC[C@@H](C)[C@@](O)(O2)C(=O)C(=O)N2CCCC[C@H]2C(=O)O[C@H]([C@H](C)C[C@@H]2CC[C@@H](OCc3cccc(-c4cnc(N5CCN(Cc6cn(CCOCCOCCOCCOCCOCCC(=O)NCCCCn7nc(-c8ccc9oc(N)nc9c8)c8c(N)ncnc87)nn6)CC5)nc4)c3)[C@H](OC)C2)CC(=O)[C@H](C)/C=C(\C)[C@@H](O)[C@@H](OC)C(=O)[C@H](C)C[C@H](C)/C=C/C=C/C=C/1C` [Example 20], for which the IC50 in test [1] is less than 1 nM; in test [2], less than 3.16 nM; in test [3], 3.16 to 31.6 nM.
Consider `CO[C@H]1C[C@@H]2CC[C@@H](C)[C@@](O)(O2)C(=O)C(=O)N2CCCC[C@H]2C(=O)O[C@H]([C@H](C)C[C@@H]2CC[C@@H](OCc3cccc(-c4cnc(N5CCN(Cc6cn(CCOCCOCCOCCOCCC(=O)NCCCCn7nc(-c8ccc9oc(N)nc9c8)c8c(N)ncnc87)nn6)CC5)nc4)c3)[C@H](OC)C2)CC(=O)[C@H](C)/C=C(\C)[C@@H](O)[C@@H](OC)C(=O)[C@H](C)C[C@H](C)/C=C/C=C/C=C/1C` [Example 21], for which the IC50 was less than 1 nM in test [1], less than 3.16 nM in test [2] and 3.16 to 31.6 nM in test [3].
As for `CO[C@H]1C[C@@H]2CC[C@@H](C)[C@@](O)(O2)C(=O)C(=O)N2CCCC[C@H]2C(=O)O[C@H]([C@H](C)C[C@@H]2CC[C@@H](OCc3cccc(-c4cnc(N5CCN(Cc6cn(CCOCCOCCOCCC(=O)NCCCCn7nc(-c8ccc9oc(N)nc9c8)c8c(N)ncnc87)nn6)CC5)nc4)c3)[C@H](OC)C2)CC(=O)[C@H](C)/C=C(\C)[C@@H](O)[C@@H](OC)C(=O)[C@H](C)C[C@H](C)/C=C/C=C/C=C/1C` [Example 22], the IC50 in test [1] is less than 1 nM; in test [2], less than 3.16 nM; in test [3] it was 3.16 to 31.6 nM.
As for `CO[C@H]1C[C@@H]2CC[C@@H](C)[C@@](O)(O2)C(=O)C(=O)N2CCCC[C@H]2C(=O)O[C@H]([C@H](C)C[C@@H]2CC[C@@H](OCc3cccc(-c4cnc(N5CCN(Cc6cn(CCOCCOCCOCCOCCOCCC(=O)NCCCCn7nc(-c8ccc9oc(N)nc9c8)c8c(N)ncnc87)nn6)C(CO)C5)nc4)c3)[C@H](OC)C2)CC(=O)[C@H](C)/C=C(\C)[C@@H](O)[C@@H](OC)C(=O)[C@H](C)C[C@H](C)/C=C/C=C/C=C/1C` (stereo partly drawn) [Example 23], the IC50 in test [1] is less than 1 nM; in test [2], less than 3.16 nM; in test [3], less than 3.16 nM.
Turning to `CO[C@H]1C[C@@H]2CC[C@@H](C)[C@@](O)(O2)C(=O)C(=O)N2CCCC[C@H]2C(=O)O[C@H]([C@H](C)C[C@@H]2CC[C@@H](OCc3cccc(-c4cnc(N5CCN(Cc6cn(CCOCCOCCOCCOCCC(=O)NCCCCn7nc(-c8ccc9oc(N)nc9c8)c8c(N)ncnc87)nn6)C(CO)C5)nc4)c3)[C@H](OC)C2)CC(=O)[C@H](C)/C=C(\C)[C@@H](O)[C@@H](OC)C(=O)[C@H](C)C[C@H](C)/C=C/C=C/C=C/1C` (stereo partly drawn) [Example 24], the IC50 in test [1] was less than 1 nM; in test [2], less than 3.16 nM; in test [3], 3.16 to 31.6 nM.
As for `CO[C@H]1C[C@@H]2CC[C@@H](C)[C@@](O)(O2)C(=O)C(=O)N2CCCC[C@H]2C(=O)O[C@H]([C@H](C)C[C@@H]2CC[C@@H](OCc3cccc(-c4cnc(N5CCN(Cc6cn(CCOCCOCCOCCC(=O)NCCCCn7nc(-c8ccc9oc(N)nc9c8)c8c(N)ncnc87)nn6)C(CO)C5)nc4)c3)[C@H](OC)C2)CC(=O)[C@H](C)/C=C(\C)[C@@H](O)[C@@H](OC)C(=O)[C@H](C)C[C@H](C)/C=C/C=C/C=C/1C` (stereo partly drawn) [Example 25], the IC50 is less than 1 nM in test [1], less than 3.16 nM in test [2] and 3.16 to 31.6 nM in test [3].
As for `CO[C@H]1C[C@@H]2CC[C@@H](C)[C@@](O)(O2)C(=O)C(=O)N2CCCC[C@H]2C(=O)O[C@H]([C@H](C)C[C@@H]2CC[C@@H](OCc3cccc(-c4cnc(N5CCN(S(=O)(=O)CCc6cn(CCOCCOCCOCCOCCC(=O)NCCCCn7nc(-c8ccc9oc(N)nc9c8)c8c(N)ncnc87)nn6)CC5)nc4)c3)[C@H](OC)C2)CC(=O)[C@H](C)/C=C(\C)[C@@H](O)[C@@H](OC)C(=O)[C@H](C)C[C@H](C)/C=C/C=C/C=C/1C` [Example 26], the IC50 in test [1] is less than 1 nM; in test [2], less than 3.16 nM; in test [3], 3.16 to 31.6 nM.
